Publication PMC4138991, “Building a Better Dynasore: The Dyngo Compounds Potently Inhibit Dynamin and Endocytosis” (Traffic (Copenhagen, Denmark), 2013)
“Also recorded” adds a separate entry of the source. Like-named read-outs stand apart in the source and are kept apart here.

Tests used:
[1] = molecular target: T1, recombinant rat dynamin II (Rattus norvegicus, UniProt P39052); test: Dynamin II GTPase assay (PS-stimulated); format: biochemical
T1 sequence (P39052 1-870): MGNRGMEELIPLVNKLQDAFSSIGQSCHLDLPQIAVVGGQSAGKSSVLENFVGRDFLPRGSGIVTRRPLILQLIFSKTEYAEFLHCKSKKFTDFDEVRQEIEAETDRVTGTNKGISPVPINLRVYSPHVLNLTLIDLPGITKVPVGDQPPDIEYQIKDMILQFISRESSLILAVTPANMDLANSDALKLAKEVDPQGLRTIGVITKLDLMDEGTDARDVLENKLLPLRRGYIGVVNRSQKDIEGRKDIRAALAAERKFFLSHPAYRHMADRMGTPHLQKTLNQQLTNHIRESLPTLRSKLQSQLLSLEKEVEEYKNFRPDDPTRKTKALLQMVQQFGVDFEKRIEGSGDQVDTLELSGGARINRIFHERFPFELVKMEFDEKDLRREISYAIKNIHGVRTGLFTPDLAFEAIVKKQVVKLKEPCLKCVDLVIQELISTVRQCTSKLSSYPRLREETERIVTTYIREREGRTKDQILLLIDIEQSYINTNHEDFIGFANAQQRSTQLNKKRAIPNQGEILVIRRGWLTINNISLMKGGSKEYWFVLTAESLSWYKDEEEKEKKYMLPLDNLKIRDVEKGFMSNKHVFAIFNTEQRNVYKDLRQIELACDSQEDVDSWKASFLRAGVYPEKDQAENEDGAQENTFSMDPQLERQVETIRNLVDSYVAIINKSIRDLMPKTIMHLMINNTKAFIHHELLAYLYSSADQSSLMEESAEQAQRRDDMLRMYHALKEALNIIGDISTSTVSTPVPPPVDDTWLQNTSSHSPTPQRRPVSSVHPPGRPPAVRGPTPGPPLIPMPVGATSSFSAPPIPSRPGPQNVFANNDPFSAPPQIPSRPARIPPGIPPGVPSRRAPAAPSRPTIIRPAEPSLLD
Description: Recombinant dynamin I was used only for the data in Table 2. The dynamin antibodies were from: Dynamin I—in‐house YF2 antibodies, raised in rabbits against two different synthetic peptides: dynamin I 629‐647 ([…]) and dynamin I 765–778 ([…]), used at 1/2000 dilution, as previously described 53; Dynamin II—Santa Cruz (C‐18, sc‐6400, used at 1/1000) and Dynamin III—Santa Cruz (P‐13, sc‐69472, used at 1/500 dilution).
Assay conditions were based on the dynamin I assay but contained modifications. Recombinant dynamin II was used at 50 nM, stimulated by 10 µg/mL PS. The GTPase reaction was allowed to occur for 90 min at 37°C before termination.

[2] = system: dynamin I SAI activity (rings); test: Self-assembly-induced (SAI) dynamin GTPase activity; format: biochemical, sheep; conditions: presence of Tween, 500 nM dynamin
Method: The Malachite Green colorimetric GTPase assay was as described 10. Dynamin I activity was measured in its SAI activity state or was stimulated by three different methods. As each stimulus activates dynamin to different extents, each assay required different dynamin concentrations. First, maximal dynamin activity was stimulated by sonicated PS liposomes 10. Purified dynamin I (10–20 nM, diluted in: 6 mM Tris–HCl, 20 mM NaCl and 0.01% Tween 80, pH 7.4) was incubated in 96‐well plates in GTPase buffer (5 mM Tris–HCl, 10 mM NaCl, 2 mM Mg^2+, 0.05% Tween 80, pH 7.4, 1 µg/mL leupeptin and 0.1 mM PMSF) and GTP 0.3 mM in the presence of test compound for 30 min at 37°C in a final assay volume of 150 μL. Reactions were terminated with 10 μL of 0.5 M ethylenediaminetetraacetic acid (EDTA) pH 7.4 and Malachite Green solution (40 μL: 2% w/v ammonium molybdate tetrahydrate, 0.15% w/v malachite green and 4 M HCl) was added for 5 min. Second, dynamin (20 nM) was stimulated by 10 µg/mL of taxol‐stabilized preformed bovine brain microtubules (Cytoskeleton, Inc) using the same protocol. […] Finally, dynamin (500 nM) SAI activity was measured using high concentrations of dynamin, which promote its cooperative self‐assembly into rings (but not helices) 26. […] After the Vmax and Km values were determined, the data were transformed using the Lineweaver–Burke equation, 1/v = 1/Vmax + (Km/Vmax)(1/[S]).

cultured CGNs = test: Fluorescent dextran uptake (ADBE) in CGNs; format: cell-based, rat; conditions: 30 μM, 15 min
Method: Granule neuron cultures were prepared from the cerebella of 7‐day‐old rat pups as previously described 57. In all experiments, neurons were used between 8 and 10 days in vitro.
Uptake of tetramethyrhodamine‐dextran (40 kDa) into nerve terminals of CGNs was monitored as described previously 40. Briefly, cells were left for 10 min in incubation medium and then stimulated with a train of 800 action potentials (80 Hz for 10 seconds) in the presence of tetramethyrhodamine‐dextran (50 μM). Dyngo compound 4a (30 μM) was present for 15 min prior to and including action potential stimulation. Dextran loading was determined by the number of fluorescent puncta in a defined field of view ([…]) using a 20× air objective at 550‐nm excitation and >575‐nm emission. Threshold analysis was performed to discount regions too large to represent individual nerve terminals (diameter greater than […]). The number of dextran puncta per field for each experiment (usually 10 fields of view per experiment) was averaged and subtracted from background fluorescence. To ensure that the density of nerve terminals was consistent between fields and experimental conditions, experiments were performed on the same set of cultures.

Calyx of Held [3] = test: Membrane capacitance measurements at the Calyx of Held in brain slices; format: cell-based, mice; conditions: for SVE (decay of membrane capacitance): direct application by puffing pipette: 300 μM 4a, 800 μM dynasore
Calyx of Held [4] = system: Calyx of Held; parameters: method as in PMID 18066059; conditions: 100 μM, 5-min preincubation; cited from earlier work

SMILES	IC50 ([1]; Absence of Tween, DynII 50 nM, no unit in table, read-out: IC50 DynII (rec))	IC50 ([1]; Presence of Tween, DynII 50 nM, no unit in table, read-out: IC50 DynII (rec))	inhibition of SAI (self-assembly) activity [2]	maximum block of ADBE measured by dextran uptake (cultured CGNs)	exocytosis (capacitance jump) (Calyx of Held [3]; 300 μM 4a in puffing pipette)	SVE (decay of membrane capacitance) (Calyx of Held [3])	IC50 ([1]; detergent removed from the assay, n = 2, read-out: IC50 full-length helical dynamin II)	effect on dynamin II ([1]; standard assay with Tween-80, up to 1.5 mM)	SVE at the Calyx of Held (Calyx of Held [4])
O=C(N/N=C/c1cc(O)c(O)cc1O)c1cc2ccccc2cc1O [4a, (E)-3-Hydroxy-N'-(2,4,5-trihydroxybenzylidene) -2-naphthohydrazide]	2.3 ± 0.2 µM	92.3 ± 10.9 µM	not at all inhibited; also recorded: without effect	> 80%	did not acutely affect exocytosis	complete blockade of SVE			
O=C(N/N=C/c1ccc(O)c(O)c1)c1cc2ccccc2cc1O [Dynasore, (E)-N'-(3,4-Dihydroxybenzylidene)-3-hydroxy-2-naphthohydrazide]			did not block			inhibits SVE	18.1 ± 0.2 µM	no effect	inhibit SVE
